Source: patent US8343475B2, “Small cationic antimicrobial peptides” (priority 2006, dated 2013)
Values after ≈ are worked out from the molar mass of the structure shown. Residues, ends and D or L forms follow the SMILES beside them.

How the values were obtained:
[1] = test system: MCP-3 release by human PBMC; assay: Chemokine induction in PBMC (capture ELISA); format: cell-based; conditions: background (6) subtracted
Method in brief: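 Human PBMC from healthy donors (Ficoll-isolated), 7.5×10^5 cells at 0.75–1×10^6 cells/ml, treated with peptides at 20 or 100 μg/ml for 24 h at 37° C, 5% CO2. MCP-3 in cell-free supernatants measured by capture ELISA.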

[2] = test system: Pseudomonas aeruginosa PAO1 strain H103; format: cell-based; conditions: for antimicrobial activity against P. aeruginosa PAO1 (in words): laboratory strain P. aeruginosa PAO1
Method in brief: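 Modified broth microdilution MIC in Mueller Hinton medium, peptides diluted in 0.01% acetic acid/0.2% BSA, polypropylene plates. Inoculum 2-7×10^5 CFU/ml, overnight at 37 °C; MIC is the lowest concentration with no visible growth.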

[3] = test system: CXCL1 (Gro-α) release by human PBMC; assay: Chemokine induction in PBMC (capture ELISA); format: cell-based; conditions: background (196) subtracted
Method in brief: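 Human PBMC from healthy donors' heparinised blood (Ficoll), 7.5×10^5 cells treated with 20 or 100 μg/ml peptide for 24 h at 37° C, 5% CO2. Cell-free supernatants assayed for CXCL1 by capture ELISA.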

[4] = test system: IL8 release by human PBMC; assay: Chemokine induction in PBMC (capture ELISA); format: cell-based; conditions: 20 or 100 μg/ml peptide, 24 hours (FIG. 14)
Procedure: FIG. 14. Induction of IL8 release by 7.5×10^5 human PBMC in response to treatment with 20 or 100 μg/ml of different peptides for 24 hours.
Venous blood (20 ml) from healthy volunteers was collected in Vacutainer® collection tubes containing sodium heparin as an anticoagulant (Becton Dickinson, Mississauga, ON) in accordance with UBC ethical approval and guidelines. Blood was diluted 1:1 with complete RPMI 1640 medium and separated by centrifugation over a Ficoll-Paque® Plus (Amersham Biosciences, Piscataway, N.J., USA) density gradient. White blood cells were isolated from the buffy coat, washed twice in RPMI 1640 complete medium, and the number of peripheral blood mononuclear cells (PBMC) was determined by trypan blue exclusion. PBMC (5×10^5) were seeded into 12-well tissue culture dishes (Falcon; Becton Dickinson) at 0.75 to 1×10^6 cells/ml at 37° C. in 5% CO2. The above conditions were chosen to mimic conditions for circulating blood monocytes entering tissues at the site of infection via extravasation.
Following incubation of the cells under various treatment regimens, the tissue culture supernatants were centrifuged at 1000×g for 5 min, then at 10,000×g for 2 min to obtain cell-free samples. Supernatants were aliquoted and then stored at −20° C. prior to assay for various chemokines by capture ELISA (eBioscience and BioSource International Inc., CA, USA respectively)

[5] = test system: MCP-1 release by human PBMC; assay: Chemokine induction in PBMC (capture ELISA); format: cell-based; conditions: background (204) subtracted
Method in brief: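 Heparinized blood from healthy volunteers; Ficoll-isolated human PBMC (7.5×10^5) treated with peptides at 20 or 100 μg/ml for 24 hours at 37° C, 5% CO2. Cell-free supernatants assayed for MCP-1 by capture ELISA.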

[6] = test system: wild-type Salmonella enterica ssp. typhimurium; format: cell-based
Method in brief: (§1)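 No-growth endpoint after overnight culture at 37° C in Mueller Hinton broth. Inoculum: 2-7×10^5 CFU/ml. Peptide diluent: 0.01% acetic acid, 0.2% BSA.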

[7] = test system: lab isolate of Candida albicans; format: cell-based; conditions: lab isolate of
Method in brief: as §1

Escherichia coli UB1005 = format: cell-based; conditions: UB1005
Method in brief: as §1

[8] = test system: Enterococcus faecalis ATCC29212; format: cell-based; conditions: ATCC29212
Method in brief: as §1

[9] = test system: clinical isolate of Staphylococcus epidermidis; format: cell-based; conditions: clinical isolate of
Method in brief: as §1

[10] = test system: Staphylococcus aureus ATCC25923; format: cell-based; conditions: ATCC25923
Method in brief: as §1

[11] = test system: multidrug resistant Pseudomonas maltophilia ATCC13637; format: cell-based
Method in brief: (§2)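 Broth microdilution in Mueller Hinton medium, peptides serially diluted in 0.01% acetic acid with 0.2% BSA in polypropylene plates. Inoculum 2-7×10^5 CFU/ml, incubated overnight at 37° C. MIC is the lowest concentration with no visible growth.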

[12] = test system: ESBL E. coli clinical strain 64771; format: cell-based; conditions: ESBL clinical strain 64771
Method in brief: as §2

[13] = test system: ESBL Klebsiella pneumonia clinical strain 63575; format: cell-based
Method in brief: as §2

[14] = test system: VRE Vancomycin resistant Enterococcus faecalis clinical isolates; format: cell-based
Method in brief: as §2

ESBL E. cloacae = format: cell-based, Enterobacter cloacae
Method in brief: (§3)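 Modified broth microdilution in Mueller Hinton medium, peptides serially diluted in 0.01% acetic acid with 0.2% BSA in polypropylene plates. Inoculum 2-7×10^5 CFU/ml, overnight incubation at 37° C; MIC taken as lowest concentration with no visible growth.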

[15] = test system: multidrug resistant Brazilian clinical isolates of P. aeruginosa; format: cell-based, Pseudomonas aeruginosa
Method in brief: as §3

[16] = test system: Liverpool Epidemic Strains; format: cell-based, Pseudomonas aeruginosa
Method in brief: as §3

[17] = test system: clinical isolates of MRSA; format: cell-based, Staphylococcus aureus
Method in brief: as §3

[18] = test system: VRE Vancomycin resistant Enterococcus faecium clinical isolates; format: cell-based
Method in brief: as §2

LDH release = format: cell-based; design: dose or concentration left out as unconfirmed
Procedure: In addition the following peptides were tested for LDH release: 1002, 1005, 1012, 1010, 1013, 1018, 1020, 1026, 1028, 1032, 1033, 1035, and 1037.

In the case of CC(C)[C@H](NC(=O)[C@H](CCCNC(=N)N)NC(=O)[C@H](Cc1ccccc1)NC(=O)[C@H](CCCNC(=N)N)NC(=O)[C@H](Cc1ccccc1)NC(=O)[C@H](CCCNC(=N)N)NC(=O)[C@H](Cc1ccccc1)NC(=O)[C@H](CCC(N)=O)NC(=O)[C@@H](N)Cc1c[nH]cn1)C(=O)N[C@@H](CCCNC(=N)N)C(=O)N[C@@H](CCCNC(=N)N)C(=O)N[C@@H](CCCCN)C(N)=O [HH13, HQFRFRFRVRRK] (H-HQFRFRFRVRRK-NH2; N-terminus assumed), the “Chemokine induction MCP-3” value ([1]; 20 μg/ml peptide) is reported as 40 pg/mL, the “Chemokine induction MCP-3” value ([1]; 100 μg/ml peptide) is reported as 54 pg/mL and the “MIC P. aerug” value ([2]; PAO1) is reported as 50 µg/mL (≈ 28.9 µM). The “Chemokine induction Gro-α” value ([3]; 20 μg/ml peptide) was 15 pg/mL, the “Chemokine induction Gro-α” value ([3]; 100 μg/ml peptide) was 42 pg/mL and the “induction of IL8” value [4] was “strongest abilities to induce this chemokine”. For the same compound, the “Chemokine induction MCP-1” value ([5]; 20 μg/ml peptide) was 1 pg/mL, the “Chemokine induction MCP-1” value ([5]; 100 μg/ml peptide) was 0 pg/mL and the “MIC S. typhi” value [6] was 12 µg/mL (≈ 6.93 µM). The “MIC C. albicans” value [7] was over 50 µg/mL, the “MIC E. coli” value (Escherichia coli UB1005) was 25 µg/mL (≈ 14.4 µM) and the “MIC E. faecalis” value [8] was over 50 µg/mL. The “MIC S. epi.” value [9] was 6 µg/mL (≈ 3.46 µM) and the “MIC S. aureus” value [10] was 12 µg/mL (≈ 6.93 µM).
For CC[C@H](C)[C@H](NC(=O)[C@H](CC(N)=O)NC(=O)[C@H](CCCCN)NC(=O)[C@H](Cc1ccccc1)NC(=O)[C@H](CCCNC(=N)N)NC(=O)[C@H](Cc1c[nH]c2ccccc12)NC(=O)[C@H](C)N)C(=O)N[C@@H](CCCNC(=N)N)C(=O)N[C@@H](CCCCN)C(N)=O [HHC126, AWRFKNIRK] (H-AWRFKNIRK-NH2; N-terminus assumed), the “Chemokine induction MCP-3” value ([1]; 20 μg/ml peptide) was 3 pg/mL, the “Chemokine induction MCP-3” value ([1]; 100 μg/ml peptide) was 0 pg/mL and the “antimicrobial activity against P. aeruginosa PAO1 (in words)” value [2] was “did not return any generally active substances”. The MIC [11] was over 223 µM, the MIC [12] was 223 µM (≈ 272 µg/mL) and the MIC [13] was over 223 µM. The MIC [14] was over 223 µM, the MIC (ESBL E. cloacae) was over 223 µM and the MIC [15] was over 223 µM. The MIC [16] was 111 µM (≈ 135 µg/mL), the “Chemokine induction Gro-α” value ([3]; 20 μg/ml peptide) was 75 pg/mL and the “Chemokine induction Gro-α” value ([3]; 100 μg/ml peptide) was -2 pg/mL. For the same compound, the MIC [17] was over 223 µM, the “Chemokine induction MCP-1” value ([5]; 20 μg/ml peptide) was 314 pg/mL and the “Chemokine induction MCP-1” value ([5]; 100 μg/ml peptide) was 104 pg/mL. For the same compound, the MIC [8] was over 223 µM and the MIC [10] was 223 µM (≈ 272 µg/mL).
For CC[C@H](C)[C@H](NC(=O)[C@H](CCCNC(=N)N)NC(=O)[C@@H](N)CCCCN)C(=O)N[C@@H](CCSC)C(=O)N[C@@H](CCCCN)C(=O)N[C@@H](CC(C)C)C(=O)N[C@@H](CCCCN)C(=O)N[C@@H](CCSC)C(=O)N[C@@H](CCCNC(=N)N)C(N)=O [HHC133, KRIMKLKMR] (H-KRIMKLKMR-NH2; N-terminus assumed), the “Chemokine induction MCP-3” value ([1]; 20 μg/ml peptide) was 0 pg/mL, the “Chemokine induction MCP-3” value ([1]; 100 μg/ml peptide) was 2 pg/mL and the “antimicrobial activity against P. aeruginosa PAO1 (in words)” value [2] was “did not return any generally active substances”. It also gave an MIC [18] of over 226 µM, an MIC [11] of over 226 µM and an MIC [12] of over 226 µM. For the same compound, the MIC [13] was over 226 µM, the MIC [14] was over 226 µM and the MIC (ESBL E. cloacae) was over 226 µM. The MIC [15] was over 226 µM, the MIC [16] was over 226 µM and the “Chemokine induction Gro-α” value ([3]; 20 μg/ml peptide) was 15 pg/mL. The “Chemokine induction Gro-α” value ([3]; 100 μg/ml peptide) was 81 pg/mL, the MIC [17] was over 226 µM and the “Chemokine induction MCP-1” value ([5]; 20 μg/ml peptide) was 195 pg/mL. The “Chemokine induction MCP-1” value ([5]; 100 μg/ml peptide) was 444 pg/mL, the MIC [8] was over 226 µM and the MIC [10] was over 226 µM.
In the case of CC[C@H](C)[C@H](NC(=O)[C@H](CCCNC(=N)N)NC(=O)[C@@H](NC(=O)[C@H](C)NC(=O)[C@@H](NC(=O)[C@@H](NC(=O)[C@H](CC(C)C)NC(=O)[C@H](CCCNC(=N)N)NC(=O)[C@@H](N)C(C)C)[C@@H](C)CC)C(C)C)C(C)C)C(=O)N[C@@H](Cc1c[nH]c2ccccc12)C(=O)N[C@@H](CCCNC(=N)N)C(=O)N[C@@H](CCCNC(=N)N)C(N)=O [compound 1018, VRLIVAVRIWRR] (H-VRLIVAVRIWRR-NH2), the LDH release (LDH release) is reported as “None showed any LDH release”.
